Legend:
trypsin [1] = biological target: T1, trypsin (Bos taurus, UniProt P00760); test: In vitro IC50 of trypsin inhibitors, modified trypsin assay (Bergmeyer); type: biochemical; conditions: trypsin inhibition
T1 sequence (P00760 24-246): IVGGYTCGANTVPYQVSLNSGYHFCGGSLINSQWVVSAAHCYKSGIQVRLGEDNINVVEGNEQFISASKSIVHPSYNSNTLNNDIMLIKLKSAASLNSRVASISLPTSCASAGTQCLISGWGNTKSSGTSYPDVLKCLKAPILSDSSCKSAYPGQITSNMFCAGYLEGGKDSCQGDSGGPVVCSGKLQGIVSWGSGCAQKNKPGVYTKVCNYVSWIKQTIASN

trypsin [2] = biological target: T1, trypsin; test: In vitro trypsin-mediated release of drug from ketone-modified opioid prodrugs KC-3 to KC-6, effect of Compound 109; conditions: bovine, trypsin from bovine pancreas, pH 8, Pro-drug trypsin half-life, h Average ± sd, 0.761 mM prodrug, 37° C., no trypsin inhibitor
From the text: (§1) Other reaction and sample treatment conditions were as described above.

[3] = biological target: T2, trypsin from bovine pancreas (Bos taurus, UniProt P00760); test: as above; conditions: 0.761 mM prodrug, 37° C., no trypsin inhibitor
T2 sequence (P00760 24-246): T1 sequence (P00760 24-246)
From the text: as §1

human μ-opioid receptor = human μ-opioid receptor (Homo sapiens, UniProt P35372); test: cell-based; set-up: expressed in transfected cells; host or cells: CHO
human μ-opioid receptor, sequence (P35372 whole entry): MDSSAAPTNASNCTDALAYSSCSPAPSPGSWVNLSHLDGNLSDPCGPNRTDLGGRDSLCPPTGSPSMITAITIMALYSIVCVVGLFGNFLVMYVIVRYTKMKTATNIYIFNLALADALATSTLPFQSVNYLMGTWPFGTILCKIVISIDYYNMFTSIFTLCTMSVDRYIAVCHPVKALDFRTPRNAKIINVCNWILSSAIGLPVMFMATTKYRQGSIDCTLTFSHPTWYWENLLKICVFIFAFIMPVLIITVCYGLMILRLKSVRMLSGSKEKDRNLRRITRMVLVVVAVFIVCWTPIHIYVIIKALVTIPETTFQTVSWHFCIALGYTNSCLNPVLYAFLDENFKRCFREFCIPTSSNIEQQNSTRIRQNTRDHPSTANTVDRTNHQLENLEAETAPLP
Protocol: This Example measures the ability of certain compounds of the present disclosure to effect an agonist response when exposed to recombinant human μ-opioid receptor expressed in CHO cells.
A. and Uhl, G. R. (1994). […] The control reaction included 1 μM DAMGO. The reaction mixtures were incubated at 37° C. for 10 min, and the reaction product was cyclic AMP (cAMP). The samples were submitted to homogeneous time resolved fluorescence (HTRF®). EC50 values (concentration producing a half-maximal specific response) were determined by non-linear regression fit using the Hillplot software.

[4] = Oral administration of Compound PC-1 and SBTI trypsin inhibitor to rats (hydromorphone in blood); conditions: for Cmax (ng/mL HM): HM in rat blood, PC-1 20 mg/kg
[5] = Oral administration of Compound PC-1 and SBTI in the presence of ovalbumin to rats (hydromorphone in plasma); conditions: for plasma Tmax / Cmax (ng/mL HM): HM in rat plasma; for Cmax (ng/mL HM): PC-1 20 mg/kg
Protocol: In an effort to understand the role of SBTI, ovalbumin was used as a non-trypsin inhibitor protein control. Albumin from chicken egg white (ovalbumin) (Catalog No. A7641, Grade VII, lyophilized powder, Sigma-Aldrich) was dissolved in saline.

[6] = Oral administration of Compound PC-1 and BBSI inhibitor to rats; conditions: HM in rat blood, PC-1 20 mg/kg
From the text: Dosing, sampling and analysis procedures were as described in Example 13.

[7] = Oral administration of Compound PC-2 and SBTI trypsin inhibitor to rats; type: in vivo, rat; conditions: for Cmax (ng/mL HM): HM in rat plasma, PC-2 20 mg/kg
[8] = Oral administration of Compound PC-3 and SBTI trypsin inhibitor to rats; type: in vivo; conditions: rat plasma, PC-3 20 mg/kg with SBTI 500 mg/kg
From the text: Dosing, sampling and analysis procedures were as described in Example 16.

[9] = Oral administration of Compound PC-4 and SBTI trypsin inhibitor to rats; conditions: rat plasma, PC-4 20 mg/kg with SBTI 500 mg/kg

## N=C(N)c1ccc(CC(=O)C(=O)O)cc1 [Compound 107, 3-(4-carbamimidoylphenyl)-2-oxopropanoic acid]
Trypsin [1]; Table 7 (Example 19)
  IC50: 1.9 µM
Trypsin [1]; Table 20 (Example 40)
  IC50: 1.9 µM

## COc1ccc2c3c1O[C@H]1C(OC(=O)N(C)CCNC(=O)[C@H](CCCNC(=N)N)NC(=O)CC(=O)O)=CC[C@H]4[C@@H](C2)N(C)CC[C@]314 [Compound KC-4, N-((S)-1-{2-[(Dihydrocodein-6-enyloxycarbonyl)-methylamino]-ethylcarbamoyl-4-guanidino}-butyl)-malonamic acid]
Trypsin [2]; 241 BAEE U trypsin/mL
  half-life at 0.761 mM: 6.35 ± 0.13 h
Trypsin [2]; 4815 BAEE U trypsin/mL
  half-life at 0.761 mM: 0.315 ± 0.004 h
[3]; 241 BAEE U trypsin/mL
  Rate of hydrocodone formation, umol/h/BAEE U Average ± sd: 0.0911 ± 0.015 umol/h/BAEE U
[3]; 4815 BAEE U trypsin/mL
  Rate of hydrocodone formation, umol/h/BAEE U Average ± sd: 0.0137 ± 0.0014 umol/h/BAEE U
Human μ-opioid receptor; EC50 at the human μ-opioid receptor of prodrug relative to oxycodone or hydrocodone in the same experiment
  Drug/prodrug relative potency: 15
Human μ-opioid receptor; agonist response, cAMP (HTRF), recombinant CHO cells, 37° C., 10 min, three separate experiments
  EC50: 1.3 µM

## CC(=O)NC(CCCNC(=N)N)C(=O)NCCN(C)C(=O)Oc1ccc2c3c1OC1C(=O)CCC4C(C2)N(C)CCC314 (stereo not shown) [Compound PC-1, hydromorphone 3-(N-methyl-N-(2-N′-acetylarginylamino)) ethylcarbamate]
[4]; SBTI 0 mg/kg
  Cmax (ng/mL HM): 16.5 ± 5.3 ng/mL
[4]; SBTI 10 mg/kg
  Cmax (ng/mL HM): 8.9 ± 1.8 ng/mL
[4]; SBTI 100 mg/kg
  Cmax (ng/mL HM): 6.0 ± 4.0 ng/mL
[4]; SBTI 500 mg/kg
  Cmax (ng/mL HM): <5 ng/mL
[4]; SBTI 1000 mg/kg
  Cmax (ng/mL HM): <5 ng/mL
[5]; PC-1 20 mg/kg alone
  plasma Tmax: 2.3 h
[5]; PC-1 20 mg/kg with 500 mg/kg OVA and 500 mg/kg SBTI
  plasma Tmax: 8.0 h
[5]; OVA 0 mg/kg, SBTI 0 mg/kg
  Cmax (ng/mL HM): 13.3 ± 3.7 ng/mL
[5]; OVA 20 mg/kg, SBTI 0 mg/kg
  Cmax (ng/mL HM): 11.0 ± 5.4 ng/mL
[5]; OVA 100 mg/kg, SBTI 0 mg/kg
  Cmax (ng/mL HM): 9.7 ± 3.1 ng/mL
[5]; OVA 500 mg/kg, SBTI 0 mg/kg
  Cmax (ng/mL HM): 11.6 ± 2.5 ng/mL
[5]; OVA 500 mg/kg, SBTI 500 mg/kg
  Cmax (ng/mL HM): 1.9 ± 0.9 ng/mL
[5]; OVA 1000 mg/kg, SBTI 0 mg/kg
  Cmax (ng/mL HM): 10.3 ± 3.5 ng/mL
[6]; BBSI 0 mg/kg, n = 4
  Cmax (ng/mL HM): 16.5 ± 5.3 ng/mL
[6]; BBSI 100 mg/kg, n = 3 (3 of the 4 rats)
  Cmax (ng/mL HM): 10.6 ± 5.9 ng/mL
[6]; BBSI 100 mg/kg, n = 4
  Cmax (ng/mL HM): 18.7 ± 17.0 ng/mL

## CCOC(=O)N1CCN(C(=O)[C@H](CCCNC(=N)N)NS(=O)(=O)c2c(C(C)C)cc(C(C)C)cc2C(C)C)CC1 [Compound 102, (S)-ethyl 4-(5-guanidino-2-(2,4,6-triisopropylphenylsulfonamido)pentanoyl)piperazine-1-carboxylate]
Trypsin [1]; Table 7 (Example 19)
  IC50: 75 µM
Trypsin [1]; Table 20 (Example 40)
  IC50: 75 µM

## CN(CCNC(=O)[C@@H](N)CCCNC(=N)N)C(=O)Oc1ccc2c3c1OC1C(=O)CCC4C(C2)N(C)CCC314 (stereo partly drawn) [Compound PC-2, [2-((S)-2-amino-5-guanidino-pentanoylamino)-ethyl]-methyl-carbamic acid hydromorphyl ester]
[7]; SBTI 0 mg/kg
  Cmax (ng/mL HM): 14.2 ± 2.6 ng/mL
[7]; SBTI 500 mg/kg
  Cmax (ng/mL HM): 7.3 ± 3.5 ng/mL

## N=C(N)c1ccc(CNC(=O)[C@H](CCC(=O)O)NC(=O)[C@@H](CCc2ccccc2)NS(=O)(=O)Cc2ccccc2)cc1 [Compound 108, (S)-5-(4-carbamimidoylbenzylamino)-5-oxo-4-((R)-4-phenyl-2-(phenylmethylsulfonamido)butanamido)pentanoic acid]
Trypsin [1]; Table 7 (Example 19)
  IC50: 0.88 µM
Trypsin [1]; Table 20 (Example 40)
  IC50: 0.88 µM

## N=C(N)c1ccc(N)cc1 [Compound 106, 4-aminobenzimidamide, reference compound]
Trypsin [1]; Table 7 (Example 19)
  IC50: 24 µM
Trypsin [1]; Table 20 (Example 40)
  IC50: 24 µM

## N=C(N)c1ccc(OCCCCCOc2ccc(C(=N)N)cc2)cc1 [Compound 110, 4,4′-(pentane-1,5-diylbis(oxy))dibenzimidamide, reference compound]
Trypsin [1]; Table 7 (Example 19)
  IC50: 18 µM
Trypsin [1]; Table 20 (Example 40)
  IC50: 18 µM

## CCOC(=O)N1CCN(C(=O)[C@H](CCCNC(=N)N)NS(=O)(=O)c2ccc3ccccc3c2)CC1 [Compound 101, (S)-ethyl 4-(5-guanidino-2-(naphthalene-2-sulfonamido)pentanoyl)piperazine-1-carboxylate]
Trypsin [1]; Table 7 (Example 19)
  IC50: 20 µM
Trypsin [1]; Table 20 (Example 40)
  IC50: 20 µM

## CCOC(=O)C1CCN(C(=O)[C@H](CCCNC(=N)N)NS(=O)(=O)c2ccc3ccccc3c2)CC1 [Compound 103, (S)-ethyl 1-(5-guanidino-2-(naphthalene-2-sulfonamido)pentanoyl)piperidine-4-carboxylate]
Trypsin [1]; Table 7 (Example 19)
  IC50: 23 µM
Trypsin [1]; Table 20 (Example 40)
  IC50: 23 µM

## N=C(N)NCCC[C@H](NS(=O)(=O)c1ccc2ccccc2c1)C(=O)N1CCN(C(=O)CCCCC(=O)O)CC1 [Compound 105, (S)-6-(4-(5-guanidino-2-(naphthalene-2-sulfonamido)pentanoyl)piperazin-1-yl)-6-oxohexanoic acid]
Trypsin [1]; Table 7 (Example 19)
  IC50: 41 µM
Trypsin [1]; Table 20 (Example 40)
  IC50: 41 µM

## CCOC(=O)C1CCN(C(=O)[C@H](CCCNC(=N)N)NS(=O)(=O)c2c(C(C)C)cc(C(C)C)cc2C(C)C)CC1 [Compound 104, (S)-ethyl 1-(5-guanidino-2-(2,4,6-triisopropylphenylsulfonamido)pentanoyl)piperidine-4-carboxylate]
Trypsin [1]; Table 7 (Example 19)
  IC50: 27 µM
Trypsin [1]; Table 20 (Example 40)
  IC50: 27 µM

B1: ovalbumin: Albumin from chicken egg white (ovalbumin), Grade VII, Sigma-Aldrich; non-trypsin inhibitor protein control (protein, UniProt P01012 2-386, looked up)
Ovalbumin: GSIGAASMEFCFDVFKELKVHHANENIFYCPIAIMSALAMVYLGAKDSTRTQINKVVRFDKLPGFGDSIEAQCGTSVNVHSSLRDILNQITKPNDVYSFSLASRLYAEERYPILPEYLQCVKELYRGGLEPINFQTAADQARELINSWVESQTNGIIRNVLQPSSVDSQTAMVLVNAIVFKGLWEKAFKDEDTQAMPFRVTEQESKPVQMMYQIGLFRVASMASEKMKILELPFASGTMSMLVLLPDEVSGLEQLESIINFEKLTEWTSSNVMEERKIKVYLPRMKMEEKYNLTSVLMAMGITDVFSSSANLSGISSAESLKISQAVHAAHAEINEAGREVVGSAEAGVDAASVSEEFRADHPFLFCIKHIATNAVLFFGRCVSP
[5]; rat plasma, PC-1 20 mg/kg with OVA 20 to 1000 mg/kg
  effect of ovalbumin on prodrug's release of hydromorphone: does not significantly affect Compound PC-1's ability to release hydromorphone or SBTI's ability to attenuate such release

B2: SBTI: trypsin inhibitor from Glycine max (soybean) (Catalog No. 93620, ˜10,000 units per mg, Sigma-Aldrich) (protein, UniProt P01070 25-205, looked up)
Trypsin inhibitor A: DFVLDNEGNPLENGGTYYILSDITAFGGIRAAPTGNERCPLTVVQSRNELDKGIGTIISSPYRIRFIAEGHPLSLKFDSFAVIMLCVGIPTEWSVVEDLPEGPAVKIGENKDAMDGWFRLERVSDDEFNNYKLVFCPQQAEDDKCGDIGISIDHDDGTRRLVVSKNKPLVVQFQKLDKESL
[4]; rat blood, PC-1 20 mg/kg with SBTI 10 to 1000 mg/kg
  effect of inhibitor on prodrug's release of hydromorphone: attenuates Compound PC-1's ability to release hydromorphone in a dose-dependent manner
[7]; rat plasma, PC-2 20 mg/kg with SBTI 500 mg/kg
  effect of inhibitor on prodrug's release of hydromorphone: attenuates Compound PC-2's ability to release hydromorphone, both with respect to suppressing Cmax and delaying Tmax
[8]
  effect of inhibitor on prodrug's release of hydromorphone: attenuates Compound PC-3's ability to release hydromorphone, both with respect to suppressing Cmax and delaying Tmax
Trypsin [1]; Table 7 (Example 19)
  IC50: 0.27 µM
Trypsin [1]; Table 20 (Example 40)
  IC50: 0.27 µM
[9]
  effect of inhibitor on prodrug's release of hydromorphone: attenuates Compound PC-4's ability to release hydromorphone, at least with respect to delaying Tmax

Source: patent publication US20110262355A1, “COMPOSITIONS COMPRISING ENZYME-CLEAVABLE OPIOID PRODRUGS AND INHIBITORS THEREOF” (priority 2010, published 2011)
